# In ChEMBL document CHEMBL1139592, “Quantitative structure-activity relationship studies for antioxidant hydroxybenzalacetones by quantum chemical- and 3-D-QSAR(CoMFA) analyses” (Bioorg Med Chem Lett, 2005):
# Species on record: Oryctolagus cuniculus
# Assay: Inhibitory concentration against peroxidation of rabbits red blood cell (RBC) membrane ghost induced by gamma-ray irradiation
# Type: functional
# Details: light or radiation study
row,SMILES,IC50
1,CC(=O)/C=C/c1cc(C(C)(C)C)ccc1O,8 µM
2,CC(=O)/C=C/c1cccc(F)c1O,51.2 µM
3,COc1ccc(O)c(/C=C/C(C)=O)c1,3.98 µM
4,CC(=O)/C=C/c1cc(C)ccc1O,8 µM
5,CCOc1cccc(/C=C/C(C)=O)c1O,3.31 µM
6,COc1cc(/C=C/C(C)=O)cc(OC)c1O,2.52 µM
7,CC(=O)/C=C/c1cc(Cl)ccc1O,60.3 µM
8,CC(=O)/C=C/c1cc(O)ccc1O,1.43 µM
9,COc1ccc(/C=C/C(C)=O)c(O)c1,35.5 µM
10,CC(=O)/C=C/c1cccc(C(C)(C)C)c1O,2.19 µM
11,CC(=O)/C=C/c1ccccc1O,37.8 µM
12,CC(=O)/C=C/c1cccc(O)c1O,1.96 µM
13,CC(=O)/C=C/c1cc(C)c(O)c(C)c1,6.32 µM
14,COc1cccc(/C=C/C(C)=O)c1O,3.25 µM
15,CC(=O)/C=C/c1cccc(C)c1O,3.63 µM
16,CC(=O)/C=C/c1ccc(O)c(O)c1,2.34 µM
17,CC(=O)/C=C/c1ccc(O)cc1,66.1 µM
18,COc1cc(/C=C/C(C)=O)ccc1O [DEHYDROZINGERONE],11.5 µM
